# Measured values as given in US20250213542A1, “DEVICES AND METHODS FOR DELIVERING SYNERGISTIC ACTIVE AGENTS TO TARGET SITES” (IRRIMAX Corporation, priority 2023, published 2025).
# Structures can show the parent of a compound that is named as a salt. Where two headings read alike, the source gives them in different places.
# Columns and labels:
# Assay type in all cases: cell-based
# S. aureus (ATCC 6538) [1] = experiment: Minimal bactericidal concentration determination, serial 2-fold dilution; details: for Number of Colonies: average of triplicate
# Procedure: (§1) The minimal bactericidal concentration (MBC) of octenidine dihydrochloride was determined against S. aureus (ATCC 6538), P. aeruginosa (ATCC 15442), and E. coli (ATCC BAA 1427) by serial 2-fold dilution experiments. A solution of chlorhexidine (0.025% w/w) was used as a positive control and comparator.
# E. coli (ATCC BAA 1427) [2] = experiment: as above; details: E. coli (ATCC BAA 1427); for Number of Colonies: average of triplicate
# Procedure: as §1
# [3] = tested on: P. aeruginosa (ATCC 15442); experiment: as above; details: for Number of Colonies: average of triplicate
# Procedure: as §1
# E. coli = experiment: Chequerboard assay, FIC and synergy analysis; details: Escherichia coli
# Procedure: (§2) Chlorhexidine gluconate (CHG) and octenidine dihydrochloride (OCT) were analyzed by chequerboard assay with each test organism to determine potential additive, synergistic, and antagonistic activity. The test organisms S. aureus, P. aeruginosa, and E. coli were tested at ranges of chlorhexidine gluconate (0.122-15.625 μg/ml, 1.25-160 μg/ml, and 0.125-16 μg/ml, respectively) and octenidine dihydrochloride (0.029-3.75 μg/mL, 0.029-3.75 μg/mL, and 0.029-3.75 μg/mL, respectively). FIC was calculated by the following Equation 2: […]
# S. aureus = experiment: Chequerboard assay, FIC and synergy analysis; details: Staphylococcus aureus
# Procedure: as §2
# P. aeruginosa = experiment: Chequerboard assay, FIC and synergy analysis; details: Pseudomonas aeruginosa, P. aeruginosa, chequerboard
# Procedure: as §2
# S. aureus (ATCC 6538) [4] = experiment: Minimum inhibitory concentration determination, serial 2-fold dilution; details: Staphylococcus aureus, ATCC6538, S. aureus (ATCC 6538)
# Procedure: as §1, with “inhibitory” for “bactericidal”, “(MIC, the minimum inhibitory concentration required for 90% growth reduction)” for “(MBC)”, “octenidine” for “octenidine dihydrochloride”
# E. coli (ATCC BAA 1427) [5] = experiment: as above; details: Escherichia coli
# Procedure: as §1, with “inhibitory” for “bactericidal”, “(MIC, the minimum inhibitory concentration required for 90% growth reduction)” for “(MBC)”, “octenidine” for “octenidine dihydrochloride”
# [6] = tested on: P. aeruginosa (ATCC 15442); experiment: as above; details: Pseudomonas aeruginosa, ATCC15442, P. aeruginosa (ATCC 15442)
# Procedure: as §1, with “inhibitory” for “bactericidal”, “(MIC, the minimum inhibitory concentration required for 90% growth reduction)” for “(MBC)”, “octenidine” for “octenidine dihydrochloride”
# [7] = in presence of CHG, read-out: MIC of OCT in Presence of CHG
# [8] = 0.46875 μg/mL, read-out: Average Growth Inhibition (%)
# [9] = 0.9375 μg/mL, read-out: Average Growth Inhibition (%)
# [10] = 1.875 μg/mL, read-out: Average Growth Inhibition (%)
# [11] = 3.75 μg/mL, read-out: Average Growth Inhibition (%)
# [12] = 7.5 μg/mL, read-out: Average Growth Inhibition (%)
# [13] = 15 μg/mL, read-out: Average Growth Inhibition (%)
# [14] = 30 μg/mL, read-out: Average Growth Inhibition (%)
# [15] = 60 μg/mL, read-out: Average Growth Inhibition (%)
# [16] = read-out: MIC (inhibited greater than 90% growth)
smiles,measurement,setting,value
"CCCCCCCCN=c1ccn(CCCCCCCCCCn2ccc(=NCCCCCCCC)cc2)cc1 [Octenidine dihydrochloride, 1-Octanamine, N,N′-(1,10-decanediyldi-1(4H)-pyridinyl-4-ylidene)bis-]",CFU/mL,S. aureus (ATCC 6538) [1]; 0.46875 μg/mL,"Lawn (‘Lawn’indicates too many colonies to accurately count (e.g., greater than 250 colonies on an agar plate))"
same,Number of Colonies,S. aureus (ATCC 6538) [1]; 0.46875 μg/mL,"Lawn (‘Lawn’indicates too many colonies to accurately count (e.g., greater than 250 colonies on an agar plate))"
same,CFU/mL,S. aureus (ATCC 6538) [1]; 0.9375 μg/mL,0 CFU/mL
same,Number of Colonies,S. aureus (ATCC 6538) [1]; 0.9375 μg/mL,0
same,CFU/mL,S. aureus (ATCC 6538) [1]; 1.875 μg/mL,0 CFU/mL
same,Number of Colonies,S. aureus (ATCC 6538) [1]; 1.875 μg/mL,0
same,CFU/mL,S. aureus (ATCC 6538) [1]; 3.75 μg/mL,566.67 CFU/mL
same,Number of Colonies,S. aureus (ATCC 6538) [1]; 3.75 μg/mL,5.6667
same,CFU/mL,S. aureus (ATCC 6538) [1]; 7.5 μg/mL,0 CFU/mL
same,Number of Colonies,S. aureus (ATCC 6538) [1]; 7.5 μg/mL,0
same,CFU/mL,S. aureus (ATCC 6538) [1]; 15 μg/mL,0 CFU/mL
same,Number of Colonies,S. aureus (ATCC 6538) [1]; 15 μg/mL,0
same,CFU/mL,S. aureus (ATCC 6538) [1]; 30 μg/mL,0 CFU/mL
same,Number of Colonies,S. aureus (ATCC 6538) [1]; 30 μg/mL,0
same,CFU/mL,S. aureus (ATCC 6538) [1]; 60 μg/mL,0 CFU/mL
same,Number of Colonies,S. aureus (ATCC 6538) [1]; 60 μg/mL,0
same,MBC,"S. aureus (ATCC 6538) [1]; Staphylococcus aureus, ATCC6538, read-out: MBC (concentration having less than 500 CFU/mL)",0.938 µg/mL
same,CFU/mL,E. coli (ATCC BAA 1427) [2]; 0.46875 μg/mL,"Lawn (‘Lawn’indicates too many colonies to accurately count (e.g., greater than 250 colonies on an agar plate))"
same,Number of Colonies,E. coli (ATCC BAA 1427) [2]; 0.46875 μg/mL,"Lawn (‘Lawn’indicates too many colonies to accurately count (e.g., greater than 250 colonies on an agar plate))"
same,CFU/mL,E. coli (ATCC BAA 1427) [2]; 0.9375 μg/mL,"Lawn (‘Lawn’indicates too many colonies to accurately count (e.g., greater than 250 colonies on an agar plate))"
same,Number of Colonies,E. coli (ATCC BAA 1427) [2]; 0.9375 μg/mL,"Lawn (‘Lawn’indicates too many colonies to accurately count (e.g., greater than 250 colonies on an agar plate))"
same,CFU/mL,E. coli (ATCC BAA 1427) [2]; 1.875 μg/mL,0 CFU/mL
same,Number of Colonies,E. coli (ATCC BAA 1427) [2]; 1.875 μg/mL,0
same,CFU/mL,E. coli (ATCC BAA 1427) [2]; 3.75 μg/mL,0 CFU/mL
same,Number of Colonies,E. coli (ATCC BAA 1427) [2]; 3.75 μg/mL,0
same,CFU/mL,E. coli (ATCC BAA 1427) [2]; 7.5 μg/mL,0 CFU/mL
same,Number of Colonies,E. coli (ATCC BAA 1427) [2]; 7.5 μg/mL,0
same,CFU/mL,E. coli (ATCC BAA 1427) [2]; 15 μg/mL,0 CFU/mL
same,Number of Colonies,E. coli (ATCC BAA 1427) [2]; 15 μg/mL,0
same,CFU/mL,E. coli (ATCC BAA 1427) [2]; 30 μg/mL,0 CFU/mL
same,Number of Colonies,E. coli (ATCC BAA 1427) [2]; 30 μg/mL,0
same,CFU/mL,E. coli (ATCC BAA 1427) [2]; 60 μg/mL,0 CFU/mL
same,Number of Colonies,E. coli (ATCC BAA 1427) [2]; 60 μg/mL,0
same,MBC,"E. coli (ATCC BAA 1427) [2]; Escherichia coli, BAA1427, read-out: MBC (concentration having less than 500 CFU/mL)",1.88 µg/mL
same,CFU/mL,[3]; 0.46875 μg/mL,"Lawn (‘Lawn’indicates too many colonies to accurately count (e.g., greater than 250 colonies on an agar plate))"
same,Number of Colonies,[3]; 0.46875 μg/mL,"Lawn (‘Lawn’indicates too many colonies to accurately count (e.g., greater than 250 colonies on an agar plate))"
same,CFU/mL,[3]; 0.9375 μg/mL,"Lawn (‘Lawn’indicates too many colonies to accurately count (e.g., greater than 250 colonies on an agar plate))"
same,Number of Colonies,[3]; 0.9375 μg/mL,"Lawn (‘Lawn’indicates too many colonies to accurately count (e.g., greater than 250 colonies on an agar plate))"
same,CFU/mL,[3]; 1.875 μg/mL,966.67 CFU/mL
same,Number of Colonies,[3]; 1.875 μg/mL,9.667
same,CFU/mL,[3]; 3.75 μg/mL,0 CFU/mL
same,Number of Colonies,[3]; 3.75 μg/mL,0
same,CFU/mL,[3]; 7.5 μg/mL,0 CFU/mL
same,Number of Colonies,[3]; 7.5 μg/mL,0
same,CFU/mL,[3]; 15 μg/mL,0 CFU/mL
same,Number of Colonies,[3]; 15 μg/mL,0
same,CFU/mL,[3]; 30 μg/mL,0 CFU/mL
same,Number of Colonies,[3]; 30 μg/mL,0
same,CFU/mL,[3]; 60 μg/mL,0 CFU/mL
same,Number of Colonies,[3]; 60 μg/mL,0
same,MBC,"[3]; Pseudomonas aeruginosa, ATCC15442, read-out: MBC (concentration having less than 500 CFU/mL)",3.75 µg/mL
same,MIC,E. coli; [7],0.029 µg/mL
same,MIC,E. coli; read-out: MIC of OCT Alone,1.88 µg/mL
same,MIC,S. aureus; [7],0.234 µg/mL
same,MIC,S. aureus; read-out: MIC of OCT Alone,0.938 µg/mL
same,MIC,P. aeruginosa; [7],0.938 µg/mL
same,MIC,P. aeruginosa; read-out: MIC of OCT Alone,1.88 µg/mL
same,inhibition at 0.46875 µg/mL,S. aureus (ATCC 6538) [4]; [8],50%
same,inhibition at 0.9375 µg/mL,S. aureus (ATCC 6538) [4]; [9],101%
same,inhibition at 1.875 µg/mL,S. aureus (ATCC 6538) [4]; [10],101%
same,inhibition at 3.75 µg/mL,S. aureus (ATCC 6538) [4]; [11],101%
same,inhibition at 7.5 µg/mL,S. aureus (ATCC 6538) [4]; [12],98%
same,inhibition at 15 µg/mL,S. aureus (ATCC 6538) [4]; [13],97%
same,inhibition at 30 µg/mL,S. aureus (ATCC 6538) [4]; [14],92%
same,inhibition at 60 µg/mL,S. aureus (ATCC 6538) [4]; [15],73%
same,MIC,S. aureus (ATCC 6538) [4]; [16],0.938 µg/mL
same,inhibition at 0.46875 µg/mL,"E. coli (ATCC BAA 1427) [5]; BAA1427, 0.46875 μg/mL, read-out: Average Growth Inhibition (%)",6%
same,inhibition at 0.9375 µg/mL,"E. coli (ATCC BAA 1427) [5]; BAA1427, 0.9375 μg/mL, read-out: Average Growth Inhibition (%)",12%
same,inhibition at 1.875 µg/mL,"E. coli (ATCC BAA 1427) [5]; BAA1427, 1.875 μg/mL, read-out: Average Growth Inhibition (%)",100%
same,inhibition at 3.75 µg/mL,"E. coli (ATCC BAA 1427) [5]; BAA1427, 3.75 μg/mL, read-out: Average Growth Inhibition (%)",100%
same,inhibition at 7.5 µg/mL,"E. coli (ATCC BAA 1427) [5]; BAA1427, 7.5 μg/mL, read-out: Average Growth Inhibition (%)",100%
same,inhibition at 15 µg/mL,"E. coli (ATCC BAA 1427) [5]; BAA1427, 15 μg/mL, read-out: Average Growth Inhibition (%)",99%
same,inhibition at 30 µg/mL,"E. coli (ATCC BAA 1427) [5]; BAA1427, 30 μg/mL, read-out: Average Growth Inhibition (%)",97%
same,inhibition at 60 µg/mL,"E. coli (ATCC BAA 1427) [5]; BAA1427, 60 μg/mL, read-out: Average Growth Inhibition (%)",91%
same,MIC,"E. coli (ATCC BAA 1427) [5]; BAA1427, read-out: MIC (inhibited greater than 90% growth)",1.88 µg/mL
same,inhibition at 0.46875 µg/mL,[6]; [8],2%
same,inhibition at 0.9375 µg/mL,[6]; [9],4%
same,inhibition at 1.875 µg/mL,[6]; [10],100%
same,inhibition at 3.75 µg/mL,[6]; [11],100%
same,inhibition at 7.5 µg/mL,[6]; [12],100%
same,inhibition at 15 µg/mL,[6]; [13],99%
same,inhibition at 30 µg/mL,[6]; [14],97%
same,inhibition at 60 µg/mL,[6]; [15],91%
same,MIC,[6]; [16],1.88 µg/mL
